Consider seven compounds from PMC5451150 (Journal of Medicinal Chemistry, 2016).

One data set addresses NSD1 (Homo sapiens, UniProt Q96L73). In words: Methyltransferase selectivity panel: NSD1. Type of data set: biochemical.
A further data set has as its target NSD2 (Homo sapiens, UniProt O96028). In words: Methyltransferase selectivity panel: NSD2. Type of data set: biochemical.
For a further data set, the target named is NSD2 (E1099K) (Homo sapiens, UniProt O96028, E1099K). In words: Methyltransferase selectivity panel: NSD2 (E1099K). Type of data set: biochemical.
The target in a further data set is PRDM9 (Homo sapiens, UniProt Q9NQV7). In words: Methyltransferase selectivity panel: PRDM9. Type of data set: biochemical.
The subject of data set [1] is global H3K27me3 levels in HeLa cells. The data set can be described thus: HeLa H3K27me3 mechanism of action (MOA) cellular assay. As to conditions: for LiPE (lipophilic efficiency = pEC50 – cLogP): pEC50 from HeLa assay, cLogP ChemDraw 15.0.
Data set [2] is described as follows: Plasma protein binding, mouse. Type of data set: in vitro ADME.
Data set [3] in a line: Plasma protein binding, rat. Type of data set: in vitro ADME.
The nature of data set [4]: Plasma protein binding, dog. Type of data set: in vitro ADME. Particulars: dog plasma.
Data set [5] in a line: Plasma protein binding, human. Type of data set: in vitro ADME.
Data set [6] is described as follows: Intrinsic clearance in mouse liver microsomes. Type of data set: in vitro ADME. As to conditions: for microsomal CLint: mouse, liver microsomes. For orientation: Liver microsomes are a subcellular fraction often used to study metabolism.
Another data set has as its target T1, EZH2 C663S (Homo sapiens, UniProt O75530+Q15910, C663S).
T1 construct: made in house
In words: EZH2 C663S incorporated into reconstituted PRC2, potency. As to conditions: single substitution cysteine to serine at position 663, reconstituted PRC2. Type of data set: biochemical.

PRDM9, sequence (Q9NQV7 whole entry): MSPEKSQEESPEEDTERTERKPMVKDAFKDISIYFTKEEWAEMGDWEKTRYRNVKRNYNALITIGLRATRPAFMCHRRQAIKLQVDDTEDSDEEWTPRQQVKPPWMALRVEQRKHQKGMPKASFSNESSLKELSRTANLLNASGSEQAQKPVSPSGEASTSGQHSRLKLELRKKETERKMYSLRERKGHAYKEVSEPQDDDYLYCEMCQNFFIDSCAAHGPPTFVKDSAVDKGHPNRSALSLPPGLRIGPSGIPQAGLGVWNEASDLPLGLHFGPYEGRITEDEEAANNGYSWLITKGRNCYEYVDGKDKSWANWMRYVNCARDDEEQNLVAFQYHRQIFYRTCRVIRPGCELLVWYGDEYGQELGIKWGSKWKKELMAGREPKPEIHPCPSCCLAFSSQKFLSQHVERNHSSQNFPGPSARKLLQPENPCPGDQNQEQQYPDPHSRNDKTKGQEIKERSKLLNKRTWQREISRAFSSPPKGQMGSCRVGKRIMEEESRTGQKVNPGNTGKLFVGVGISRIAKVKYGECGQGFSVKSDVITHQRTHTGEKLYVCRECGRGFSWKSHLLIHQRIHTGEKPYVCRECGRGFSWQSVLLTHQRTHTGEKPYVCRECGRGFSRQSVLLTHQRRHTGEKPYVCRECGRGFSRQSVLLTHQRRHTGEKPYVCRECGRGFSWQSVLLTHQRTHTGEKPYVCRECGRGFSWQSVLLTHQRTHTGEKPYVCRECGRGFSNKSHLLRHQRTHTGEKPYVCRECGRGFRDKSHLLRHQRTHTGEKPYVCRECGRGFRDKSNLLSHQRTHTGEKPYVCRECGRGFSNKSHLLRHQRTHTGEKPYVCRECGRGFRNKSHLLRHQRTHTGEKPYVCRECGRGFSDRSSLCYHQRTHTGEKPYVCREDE
NSD1, sequence (Q96L73 whole entry, species assumed): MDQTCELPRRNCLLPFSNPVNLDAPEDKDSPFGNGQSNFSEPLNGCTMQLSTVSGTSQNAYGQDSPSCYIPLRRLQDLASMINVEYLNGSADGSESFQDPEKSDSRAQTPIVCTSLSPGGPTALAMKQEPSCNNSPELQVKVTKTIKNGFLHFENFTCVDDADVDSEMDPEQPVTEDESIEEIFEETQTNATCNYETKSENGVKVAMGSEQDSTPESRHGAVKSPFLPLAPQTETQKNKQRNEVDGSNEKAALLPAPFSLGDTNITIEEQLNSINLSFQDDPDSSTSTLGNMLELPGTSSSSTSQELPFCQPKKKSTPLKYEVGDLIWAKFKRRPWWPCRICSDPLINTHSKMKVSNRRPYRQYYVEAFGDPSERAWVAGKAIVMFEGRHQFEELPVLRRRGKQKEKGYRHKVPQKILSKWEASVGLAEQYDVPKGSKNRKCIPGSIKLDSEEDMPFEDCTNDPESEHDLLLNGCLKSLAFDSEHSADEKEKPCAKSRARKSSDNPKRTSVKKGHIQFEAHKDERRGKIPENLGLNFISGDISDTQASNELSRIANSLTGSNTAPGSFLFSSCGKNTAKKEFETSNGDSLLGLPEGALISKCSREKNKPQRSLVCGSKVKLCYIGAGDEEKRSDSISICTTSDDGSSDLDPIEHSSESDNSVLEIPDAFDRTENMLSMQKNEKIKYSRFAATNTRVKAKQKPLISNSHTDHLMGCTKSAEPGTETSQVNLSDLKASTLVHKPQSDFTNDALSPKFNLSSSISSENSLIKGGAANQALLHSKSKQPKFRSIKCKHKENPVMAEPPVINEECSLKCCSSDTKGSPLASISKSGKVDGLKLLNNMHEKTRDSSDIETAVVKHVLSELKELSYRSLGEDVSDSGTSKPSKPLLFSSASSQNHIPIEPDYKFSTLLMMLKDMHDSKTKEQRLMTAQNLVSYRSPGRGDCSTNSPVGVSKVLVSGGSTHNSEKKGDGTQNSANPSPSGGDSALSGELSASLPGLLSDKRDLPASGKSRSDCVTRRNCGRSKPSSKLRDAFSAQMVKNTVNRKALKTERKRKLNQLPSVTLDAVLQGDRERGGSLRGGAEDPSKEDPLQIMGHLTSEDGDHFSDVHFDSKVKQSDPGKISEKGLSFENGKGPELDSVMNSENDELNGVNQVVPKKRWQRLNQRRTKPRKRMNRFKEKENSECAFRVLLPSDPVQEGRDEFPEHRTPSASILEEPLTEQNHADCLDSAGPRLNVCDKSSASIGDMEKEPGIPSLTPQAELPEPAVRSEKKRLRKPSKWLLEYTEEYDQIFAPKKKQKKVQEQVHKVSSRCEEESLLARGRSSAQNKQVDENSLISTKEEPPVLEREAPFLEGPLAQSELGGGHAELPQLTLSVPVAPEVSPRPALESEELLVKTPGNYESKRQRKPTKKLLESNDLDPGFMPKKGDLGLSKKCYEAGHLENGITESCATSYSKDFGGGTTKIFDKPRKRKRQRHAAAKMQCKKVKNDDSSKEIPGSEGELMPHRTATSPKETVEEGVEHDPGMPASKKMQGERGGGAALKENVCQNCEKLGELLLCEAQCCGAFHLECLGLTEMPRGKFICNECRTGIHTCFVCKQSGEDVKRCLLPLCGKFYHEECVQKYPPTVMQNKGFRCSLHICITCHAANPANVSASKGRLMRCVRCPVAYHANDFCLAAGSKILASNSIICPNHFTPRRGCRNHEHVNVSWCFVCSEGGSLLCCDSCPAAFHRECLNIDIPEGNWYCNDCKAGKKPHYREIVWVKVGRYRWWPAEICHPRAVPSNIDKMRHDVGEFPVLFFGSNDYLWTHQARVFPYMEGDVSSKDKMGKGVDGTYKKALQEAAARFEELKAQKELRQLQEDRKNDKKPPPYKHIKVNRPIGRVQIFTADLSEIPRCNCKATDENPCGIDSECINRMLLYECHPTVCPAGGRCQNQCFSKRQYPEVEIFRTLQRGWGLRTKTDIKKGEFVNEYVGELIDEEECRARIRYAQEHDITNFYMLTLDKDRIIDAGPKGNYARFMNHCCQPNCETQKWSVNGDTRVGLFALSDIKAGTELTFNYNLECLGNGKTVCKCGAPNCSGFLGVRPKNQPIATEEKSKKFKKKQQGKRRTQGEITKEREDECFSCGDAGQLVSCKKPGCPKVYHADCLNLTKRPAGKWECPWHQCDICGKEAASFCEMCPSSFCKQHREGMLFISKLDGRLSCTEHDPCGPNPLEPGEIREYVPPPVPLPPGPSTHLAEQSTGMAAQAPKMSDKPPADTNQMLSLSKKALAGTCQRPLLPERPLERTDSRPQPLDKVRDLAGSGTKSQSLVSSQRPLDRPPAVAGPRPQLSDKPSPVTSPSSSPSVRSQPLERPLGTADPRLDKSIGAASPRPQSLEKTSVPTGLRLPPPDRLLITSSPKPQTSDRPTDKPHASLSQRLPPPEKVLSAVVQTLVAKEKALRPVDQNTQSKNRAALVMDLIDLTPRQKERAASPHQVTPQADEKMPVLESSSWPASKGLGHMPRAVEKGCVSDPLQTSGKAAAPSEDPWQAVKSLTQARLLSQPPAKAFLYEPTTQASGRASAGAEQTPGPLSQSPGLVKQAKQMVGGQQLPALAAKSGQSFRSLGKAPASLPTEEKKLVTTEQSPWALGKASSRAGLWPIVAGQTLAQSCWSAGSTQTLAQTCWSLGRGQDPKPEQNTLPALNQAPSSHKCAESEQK
NSD2 (E1099K), sequence (O96028 whole entry E1099K): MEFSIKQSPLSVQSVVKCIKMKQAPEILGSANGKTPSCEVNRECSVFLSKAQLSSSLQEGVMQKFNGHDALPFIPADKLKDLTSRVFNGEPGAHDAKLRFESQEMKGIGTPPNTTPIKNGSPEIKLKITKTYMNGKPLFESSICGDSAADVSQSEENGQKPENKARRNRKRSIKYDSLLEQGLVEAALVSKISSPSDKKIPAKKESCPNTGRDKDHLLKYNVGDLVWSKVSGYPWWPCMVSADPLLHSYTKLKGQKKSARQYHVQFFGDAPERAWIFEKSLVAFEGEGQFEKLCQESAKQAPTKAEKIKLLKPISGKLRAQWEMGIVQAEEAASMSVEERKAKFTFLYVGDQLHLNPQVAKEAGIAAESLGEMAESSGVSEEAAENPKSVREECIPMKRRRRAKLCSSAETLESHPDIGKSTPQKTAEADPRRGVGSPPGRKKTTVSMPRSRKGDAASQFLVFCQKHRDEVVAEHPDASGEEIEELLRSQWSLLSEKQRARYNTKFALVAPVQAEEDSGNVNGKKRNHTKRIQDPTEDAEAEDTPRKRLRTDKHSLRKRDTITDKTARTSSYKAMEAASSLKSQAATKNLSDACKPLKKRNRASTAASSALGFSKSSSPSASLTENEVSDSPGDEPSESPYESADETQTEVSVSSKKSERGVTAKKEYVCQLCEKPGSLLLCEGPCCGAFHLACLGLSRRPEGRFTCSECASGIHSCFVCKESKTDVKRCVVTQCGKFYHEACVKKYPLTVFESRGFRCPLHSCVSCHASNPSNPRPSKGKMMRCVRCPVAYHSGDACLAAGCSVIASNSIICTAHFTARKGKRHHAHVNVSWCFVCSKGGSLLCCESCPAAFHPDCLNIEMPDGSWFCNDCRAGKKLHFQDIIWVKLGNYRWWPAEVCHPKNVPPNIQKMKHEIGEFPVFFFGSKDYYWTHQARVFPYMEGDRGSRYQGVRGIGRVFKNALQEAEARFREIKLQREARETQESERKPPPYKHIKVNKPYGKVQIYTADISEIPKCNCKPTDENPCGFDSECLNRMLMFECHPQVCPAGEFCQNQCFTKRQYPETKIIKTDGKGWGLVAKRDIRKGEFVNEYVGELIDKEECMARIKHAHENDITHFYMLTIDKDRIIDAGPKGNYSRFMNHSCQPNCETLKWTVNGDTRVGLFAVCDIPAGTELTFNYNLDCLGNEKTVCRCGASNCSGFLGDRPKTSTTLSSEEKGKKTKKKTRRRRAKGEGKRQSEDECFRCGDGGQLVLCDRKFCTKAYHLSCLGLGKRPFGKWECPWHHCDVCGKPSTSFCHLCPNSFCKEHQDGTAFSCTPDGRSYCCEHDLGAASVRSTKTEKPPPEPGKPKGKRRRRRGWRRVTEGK
NSD2, sequence (O96028 whole entry): as the sequence (O96028 whole entry E1099K) above, with K1099E counted along it

For the compound `CN1C(=O)[C@@]23C[C@]4([C@]56C[C@@]78SS[C@@](CO)(C(=O)N7[C@H]5Nc5ccccc56)N(C)C8=O)c5ccccc5N[C@@H]4N2C(=O)[C@]1(CO)SS3` [Chaetocin, reference compound], the IC50 on NSD1 was determined as 218 nM; against NSD2 it was 125 nM; at NSD2 (E1099K), 70.5 nM; against PRDM9, 4740 nM.
As for `COc1cc(C)[nH]c(=O)c1CNC(=O)c1c(C)n([C@H](C)C2CCN(C(=O)C(C)C)CC2)c2ccccc12` [compound 4, (R)-1-(1-(1-Isobutyrylpiperidin-4-yl)ethyl)-N-((4-methoxy-6-methyl-2-oxo-1,2-dihydropyridin-3-yl)methyl)-2-methyl-1H-indole-3-carboxamide], the “loss in cellular potency relative to 1” value in data set [1] (HeLa H3K27me3 MOA assay) is given as “approximately 5 fold”.
With `COc1cc(C)[nH]c(=O)c1CNC(=O)c1c(C)n([C@H](C)C2CCN(C(=O)OC(C)C)CC2)c2ccccc12` [compound 5, Isopropyl (R)-4-(1-(3-(((4-Methoxy-6-methyl-2-oxo-1,2-dihydropyridin-3-yl)methyl)carbamoyl)-2-methyl-1H-indol-1-yl)ethyl)piperidine-1-carboxylate], the “loss in cellular potency relative to 1” value in [1] (HeLa H3K27me3 MOA assay) is reported as ~2 fold.
For `COc1cc(C)[nH]c(=O)c1CNC(=O)c1c(C)n([C@H](C)C2CCN(C(=O)N(C)C)CC2)c2ccccc12` [compound 6, (R)-1-(1-(1-(Dimethylcarbamoyl)piperidin-4-yl)ethyl)-N-((4-methoxy-6-methyl-2-oxo-1,2-dihydropyridin-3-yl)methyl)-2-methyl-1H-indole-3-carboxamide], the “loss in cellular potency relative to 1” value in [1] (HeLa H3K27me3 MOA assay) is reported as ~11 fold.
`COc1cc(C)[nH]c(=O)c1CNC(=O)c1c(C)n([C@H](C)C2CCN(CCC(F)(F)F)CC2)c2ccccc12` [compound 9, (R)-N-((4-Methoxy-6-methyl-2-oxo-1,2-dihydropyridin-3-yl)methyl)-2-methyl-1-(1-(1-(3,3,3-trifluoropropyl)piperidin-4-yl)ethyl)-1H-indole-3-carboxamide]: the PPB in [2] turned out to be 99.7 % bound; in data set [3], 97.4 % bound; in data set [4] it was 96.3 % bound; in data set [5], 95.9 % bound. In [1] (HeLa H3K27me3 MOA assay), the “improvement in cellular potency relative to piperidine 2” value is “over 3 fold”. Further, the “LiPE (lipophilic efficiency = pEC50 – cLogP)” value in [1] turned out to be 3.1.
Compound `COc1cc(C)[nH]c(=O)c1CNC(=O)c1c(C)n([C@H](C)C2CCN(CC(C)(F)F)CC2)c2ccccc12` [compound 10, (R)-1-(1-(1-(2,2-Difluoropropyl)piperidin-4-yl)ethyl)-N-((4-methoxy-6-methyl-2-oxo-1,2-dihydropyridin-3-yl)methyl)-2-methyl-1H-indole-3-carboxamide] returned a Clint in data set [6] of 193 μL/min/mg protein. Also, the microsomal CLint in [6] is > 100 µL/min/mg. Besides, the PPB in [2] was found to be 99.4 % bound; in [3] it was 92.4 % bound; in data set [4], 93.6 % bound; in data set [5], 94.7 % bound. Moreover, the “potency in mutated EZH2 C663S (versus EZH2)” value on EZH2 C663S is “decreased”. For the same compound, the “gain in cellular potency over n-trifluoropropyl analogue 9” value in [1] (HeLa H3K27me3 MOA assay) came out at 10 fold. Also, the “LiPE (lipophilic efficiency = pEC50 – cLogP)” value in data set [1] stood at 4.0.
With `COc1cc(C)[nH]c(=O)c1CNC(=O)c1c(C)n([C@H](C)C2CCN(CC(F)F)CC2)c2ccccc12` [compound 12, (R)-1-(1-(1-(2,2-Difluoroethyl)piperidin-4-yl)ethyl)-N-((4-methoxy-6-methyl-2-oxo-1,2-dihydropyridin-3-yl)methyl)-2-methyl-1H-indole-3-carboxamide], the Clint in data set [6] is listed as 131 μL/min/mg protein. For the same compound, the microsomal CLint in data set [6] is > 100 µL/min/mg. For the same compound, the PPB came to 97.8 % bound in [2], 83.1 % bound in [3], 64.3 % bound in data set [4] and 83.3 % bound in data set [5]. In data set [1], the “LiPE (lipophilic efficiency = pEC50 – cLogP)” value stood at 4.2.

The term IC50 denotes the point on the concentration scale where inhibition reaches its midpoint. Low values mean greater potency in that assay, high ones weaker potency in that assay. What is called microsomal CLint is a measure of how fast metabolising enzymes remove a compound, apart from limits set by blood flow. Higher therefore signals rapid turnover.
